# Measured values as given in patent publication US20260021061A1, “ARIADNE AND ANALOGS FOR THE TREATMENT OF NEUROLOGICAL AND NEUROMUSCLAR DISORDERS” (priority 2022, published 2026).
# Read-outs that look alike come from different tables or passages of the source.
# What was measured:
# 5-HT4 receptor = 5-HT4 receptor (Homo sapiens, UniProt Q13639); experiment: 5-HTome G protein activation BRET assay; details: 5-HTome screen
# Method: (§1) All BRET assays were conducted using BRET2 in HEK293T cells (ATCC CRL-11268; mycoplasma-free), which were subcultured in high-glucose DMEM (VWR) supplemented with 10% FBS (Life Technologies).
# Constructs in G protein-dissociation BRET assays were derived from the codon-optimized Tango pcDNA3.1 library (Addgene) with V2tail/TEV/tTA encoding regions deleted to yield “de-Tango” constructs. […] All Gα-Rluc8, Beta, and GFP2-γ constructs were derived from the TRUPATH pcDNA5/FRT/TO library (Addgene). […]
# On the day of the assay, plates were decanted and 20 uL of drug buffer per well (1×HBSS, 20 mM HEPES, pH 7.4) was added using a Multidrop (ThermoFisher Scientific), and plates were allowed to equilibrate at 37° C. in a humidified incubator before receiving drug stimulation. […] Before reading, addition of coelenterazine 400a (5 uM final concentration; Nanolight Technology) was performed by the [sequence]. Immediately after, plates were read at 400 nm Rluc and fluorescent GFP2 emission at 510 nm for BRET2 at 0.8 second per well using a PheraStarFSX (BMB Lab Tech).
# The BRET ratios of 510/400 luminescence were calculated per well and were plotted as a function of drug concentration using Graphpad Prism 5 or 9 (Graphpad Software Inc., San Diego, CA). […]
# 5-HT2A [1] = target: T1, 5-HT2A (Homo sapiens, UniProt P28223); experiment: G protein (Gq) dissociation BRET assay; type: cell-based; design: host or cells: HEK293T (ATCC CRL-11268)
# T1 sequence (P28223 whole entry): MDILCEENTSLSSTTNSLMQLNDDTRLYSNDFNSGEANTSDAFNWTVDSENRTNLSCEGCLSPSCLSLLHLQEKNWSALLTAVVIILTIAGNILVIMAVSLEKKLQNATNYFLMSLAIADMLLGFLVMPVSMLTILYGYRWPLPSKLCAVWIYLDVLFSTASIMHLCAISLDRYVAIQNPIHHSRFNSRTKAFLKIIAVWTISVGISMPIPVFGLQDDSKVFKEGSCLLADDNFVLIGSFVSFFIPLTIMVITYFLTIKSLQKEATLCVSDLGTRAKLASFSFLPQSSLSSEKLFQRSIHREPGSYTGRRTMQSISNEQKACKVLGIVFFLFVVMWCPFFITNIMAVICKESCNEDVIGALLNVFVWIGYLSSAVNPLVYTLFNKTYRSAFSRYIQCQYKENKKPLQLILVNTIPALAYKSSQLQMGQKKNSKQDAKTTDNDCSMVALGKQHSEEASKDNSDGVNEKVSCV
# 5-HT7a receptor = 5-HT7a receptor (Homo sapiens, UniProt P34969); experiment: 5-HTome G protein activation BRET assay; details: 5-HTome screen
# Chain of 5-HT7a receptor (P34969 1-445 isoform P34969-2): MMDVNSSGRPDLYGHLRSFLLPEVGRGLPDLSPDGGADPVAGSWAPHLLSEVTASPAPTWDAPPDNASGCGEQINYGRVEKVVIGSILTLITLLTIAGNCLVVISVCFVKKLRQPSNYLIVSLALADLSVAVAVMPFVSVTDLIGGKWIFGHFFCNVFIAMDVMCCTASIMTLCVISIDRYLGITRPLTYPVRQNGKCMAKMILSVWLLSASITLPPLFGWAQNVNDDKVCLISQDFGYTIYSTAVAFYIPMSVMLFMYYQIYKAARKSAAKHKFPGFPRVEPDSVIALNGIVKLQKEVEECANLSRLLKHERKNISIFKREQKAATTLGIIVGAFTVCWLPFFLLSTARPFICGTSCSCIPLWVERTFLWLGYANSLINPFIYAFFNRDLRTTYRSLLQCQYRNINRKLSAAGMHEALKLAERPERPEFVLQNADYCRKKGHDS
# Method: as §1
# (§2) Constructs in G protein-dissociation BRET assays were derived from the codon-optimized Tango pcDNA3.1 library (Addgene) with V2tail/TEV/tTA encoding regions deleted to yield “de-Tango” constructs. […] All Gα-Rluc8, Beta, and GFP2-γ constructs were derived from the TRUPATH pcDNA5/FRT/TO library (Addgene).
# (§3) Approximately 48 hours before assays, cells were transfected using a reverse transfection method and plated in 1% dFBS at an approximate density of 15,000 cells per well into poly-L-lysine-coated 384-well white assay plates (Grenier Bio-One). For G protein-dissociation assays, cells were transfected in a 1:1:1:1 ratio of receptor: Gα-Rluc8: Beta: GFP2-γ constructs. […] All transfections were prepared in Opti-MEM (Invitrogen) and used a 3:1 ratio of TransIT-2020 (Mirus) uL:ug total DNA.
# (§4) On the day of the assay, plates were decanted and 20 uL of drug buffer per well (1×HBSS, 20 mM HEPES, pH 7.4) was added using a Multidrop (ThermoFisher Scientific), and plates were allowed to equilibrate at 37° C. in a humidified incubator before receiving drug stimulation. Drug dilutions of all compounds were performed in McCorvy buffer (1×HBSS, 20 mM HEPES, pH 7.4, supplemented with 0.3% BSA fatty acid free (GoldBio), and 0.03% ascorbic acid). […] Before reading, addition of coelenterazine 400a (5 uM final concentration; Nanolight Technology) was performed by the [sequence]. Immediately after, plates were read at 400 nm Rluc and fluorescent GFP2 emission at 510 nm for BRET2 at 0.8 second per well using a PheraStarFSX (BMB Lab Tech).
# (§5) The BRET ratios of 510/400 luminescence were calculated per well and were plotted as a function of drug concentration using Graphpad Prism 5 or 9 (Graphpad Software Inc., San Diego, CA). Data were normalized to % positive control stimulation and analyzed using nonlinear regression “log(agonist) vs. response” to yield Emax and EC50 parameter estimates.
# 5-HT2B = 5-HT2B (Homo sapiens, UniProt P41595); experiment: G protein (Gq) dissociation BRET assay
# Chain of 5-HT2B (P41595 whole entry): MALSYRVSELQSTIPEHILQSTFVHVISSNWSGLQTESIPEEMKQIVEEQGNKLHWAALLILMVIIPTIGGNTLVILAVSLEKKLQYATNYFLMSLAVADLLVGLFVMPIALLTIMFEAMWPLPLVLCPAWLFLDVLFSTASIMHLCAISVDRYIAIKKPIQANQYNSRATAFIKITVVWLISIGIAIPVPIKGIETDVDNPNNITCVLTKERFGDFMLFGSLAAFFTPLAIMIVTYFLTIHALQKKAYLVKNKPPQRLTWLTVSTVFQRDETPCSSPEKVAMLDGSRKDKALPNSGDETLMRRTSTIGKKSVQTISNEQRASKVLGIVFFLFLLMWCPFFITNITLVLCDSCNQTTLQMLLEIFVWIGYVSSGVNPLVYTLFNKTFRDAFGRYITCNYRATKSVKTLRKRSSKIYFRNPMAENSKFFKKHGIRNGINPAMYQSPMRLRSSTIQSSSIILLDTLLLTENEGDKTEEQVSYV
# Method: as §1, §2, §3
# On the day of the assay, plates were decanted and 20 uL of drug buffer per well (1×HBSS, 20 mM HEPES, pH 7.4) was added using a Multidrop (ThermoFisher Scientific), and plates were allowed to equilibrate at 37° C. in a humidified incubator before receiving drug stimulation. Drug dilutions of all compounds were performed in McCorvy buffer (1×HBSS, 20 mM HEPES, pH 7.4, supplemented with 0.3% BSA fatty acid free (GoldBio), and 0.03% ascorbic acid). […] Next, plates were incubated at 37° C. in a humidified incubator for 60 minutes or specified time point. Before reading, addition of coelenterazine 400a (5 uM final concentration; Nanolight Technology) was performed by the [sequence]. Immediately after, plates were read at 400 nm Rluc and fluorescent GFP2 emission at 510 nm for BRET2 at 0.8 second per well using a PheraStarFSX (BMB Lab Tech).
# as §5
# 5-HT2A [2] = target: T1, 5-HT2A; experiment: Radioligand displacement assay; type: binding
# Method: Therefore, an orthogonal assay measuring calcium flux was also performed for the 5-HT2 receptors (Klein et al., 2020).
# C57BL/6J mice = experiment: Head twitch response (HTR) in mice; type: in vivo, mouse
# Method: All samples were prepared the same day testing was performed. Solids were weighed into small vials and dissolved in USP grade 0.85% saline with addition of 2 molar equivalents of glacial acetic acid. Sonication and gentle heating were applied until complete dissolution. The compounds were subsequently filtered through 0.45 μm filters into a new glass vial. All compounds were administered at a 1 mg/kg subcutaneous dose at a volume of 10 mL/kg of body weight. Volinanserin hydrochloride salt (MDL 100907) was purchased from Toronto Research Chemicals.
# All experimental procedures involving animals were approved by an Institutional Animal Care and Use Committee (IACUC) and adhered to principles described in the National Institutes of Health Guide for the Care and Use of Laboratory Animals. The studies were conducted at AAALAC accredited facilities. Animals received regular veterinary care (weekly by institutional veterinarians) including daily health monitoring (by experimenters) of the animals (observing home cage behaviors, nesting, and body weight). All procedures were designed to minimize any stress/distress. Healthy adult male mice C57BL/6J (8-12 weeks, 26-33 g) were purchased from the Jackson Laboratory (Bar Harbor, ME) and housed 5 mice per cage with food and water available ad libitum. Mice were maintained on a 12-h light/dark cycle (lights on 7:00-19:00) and all testing was done in the light cycle. Temperature was kept constant at 22±2° C., and relative humidity was maintained at 50±5%
# The head-twitch response evaluation was performed by a trained observer who was blinded to both drug and dose. Mice were moved to the testing room 30 min before the experiment to allow for acclimation. The body weight of each mouse was recorded. Mice were administered either a 1, 3, 10, or 30 mg/kg s.c. dose of compound solution (volume of injection 260-330 μL based on body weight). […] The total number of head-twitches over the 15 minute period were recorded. Five mice were used per dose.
# DOI was tested at the doses of 0.3, 1, 3, and 10 mg/kg (s.c., 5 mice per dose) and testing began immediately after administration of the compound. Ariadne was tested at the doses of 1, 3, 10, and 30 mg/kg (s.c., 5 mice per dose) and there was a 10 min interval between treatment and testing.
# 5-HT5a receptor = 5-HT5a receptor (Homo sapiens, UniProt P47898); experiment: 5-HTome G protein activation BRET assay; details: 5-HTome screen
# Chain of 5-HT5a receptor (P47898 whole entry): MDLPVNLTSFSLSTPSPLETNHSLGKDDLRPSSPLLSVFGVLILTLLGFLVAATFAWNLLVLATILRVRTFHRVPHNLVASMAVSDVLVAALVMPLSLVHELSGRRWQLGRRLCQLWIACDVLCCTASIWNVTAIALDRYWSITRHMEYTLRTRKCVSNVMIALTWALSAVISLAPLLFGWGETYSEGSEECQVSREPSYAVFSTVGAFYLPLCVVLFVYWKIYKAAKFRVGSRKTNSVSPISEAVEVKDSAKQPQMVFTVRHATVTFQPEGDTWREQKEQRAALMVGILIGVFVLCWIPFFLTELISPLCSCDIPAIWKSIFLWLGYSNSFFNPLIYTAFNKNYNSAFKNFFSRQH
# Method: as §1, §2, §3, §4, §5
# [3] = EC50, agonist activity, 5-HTome screen
# Chain of 5-HT4 receptor (Q13639 whole entry): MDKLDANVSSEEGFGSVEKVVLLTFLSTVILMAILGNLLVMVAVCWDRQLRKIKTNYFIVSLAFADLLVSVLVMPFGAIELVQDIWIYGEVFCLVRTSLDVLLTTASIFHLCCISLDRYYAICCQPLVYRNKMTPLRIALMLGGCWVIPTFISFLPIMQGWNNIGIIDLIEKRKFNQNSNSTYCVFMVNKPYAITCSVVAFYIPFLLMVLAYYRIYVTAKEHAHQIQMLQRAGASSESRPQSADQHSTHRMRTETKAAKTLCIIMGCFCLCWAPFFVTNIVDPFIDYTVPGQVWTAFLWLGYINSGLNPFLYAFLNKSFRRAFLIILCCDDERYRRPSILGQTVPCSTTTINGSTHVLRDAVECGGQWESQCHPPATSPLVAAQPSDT
structure (smiles),measurement,setting,value
CC[C@@H](N)Cc1cc(OC)c(C)cc1OC [(R)-Ariadne],agonist activity,5-HT4 receptor,Little to no agonist activity
same,Emax,"5-HT2A [1]; 5-HTome screen, read-out: Emax, agonist activity",> 70%
same,EC50,"5-HT2A [1]; EC50 (EC50/Gq), Gq dissociation, Gq dissociation BRET",0.149 µM
same,EC50,5-HT2A [1]; [3],< 1 µM
same,Emax,"5-HT2A [1]; Gq dissociation BRET, normalized to 5-HT, read-out: Emax (Emax/Gq) relative to 5-HT",75%
same,agonist activity,5-HT7a receptor,Little to no agonist activity
same,EC50,"5-HT2B; EC50, Gq dissociation, Gq dissociation BRET",0.739 µM
same,EC50,5-HT2B; [3],< 1 µM
same,Emax,"5-HT2B; read-out: Emax, agonist activity",> 70%
same,Ki,5-HT2A [2],0.053 µM
same,"HTR in presence of MDL100,907 (volinanserin), 5-HT2A antagonist","C57BL/6J mice; mouse, in vivo",completely inhibited
same,dose of maximum (peak) HTR,C57BL/6J mice; s.c.,10 mg/kg
same,agonist activity,5-HT5a receptor,Little to no agonist activity
